From patent US12708620B2, “Prodrugs and medical uses thereof” (priority 2018, dated 2026) come the findings set out here.

Entries after “also recorded” stand apart in the source; their conditions may differ.

Data set [1] in a line: preliminary toxicology study, intravenous administration. It counts as in vivo, rat. As for the experimental part: Preliminary toxicology studies of the intravenous administration of Cpd.11 Ms in rats and dogs according to a dosing regimen consisting of 3 consecutive days of administration in a 3 weekly cycle (QDx3/cycle) have shown that potential haematological toxicity in tissues such as the bone marrow, the thymus and lymph nodes (known to have hypoxic niches) can be minimized at dosages at or below 400 mg/kg in the rat and at or below 100 mg/kg in the dog. As such, these levels correspond to 2360 mg/m^2 and 2000 mg/m^2, respectively, in human subjects. […] Alternative dosing regimens also include weekly administration for up to 3 or 4 consecutive times of each 3 or 4 weekly cycle. In addition, also an initial dose of QDx3 or QDx5 could be combined with less frequent administration schedules that may still allow a therapeutic effect over tumor growth and development, such as up to 3 or 4 weekly dosages in 3 to 4 weekly cycles, or once a month (or every three-four weeks) schedules that be applied with or without the parallel treatment with the appropriate standard-of-care protocols.

For data set [2], the system named is MDA-MB-436 tumor xenograft. Briefly: triple negative breast cancer xenograft model. Type of data set: in vivo, BALB/c Nude Mice. The note with it: MDA-MB-436 xenograft, single treatment cycle; for Anti-tumor effect: 600 mg/kg IP, hypoxic status confirmed, methanesulfonate, 600 mg/kg. As for the experimental part: All animal models were established as xenograft model in BALB/c Nude Mice (6-8 weeks old, 17-23 grams, maintained in standard conditions and diet), following approved IACUC (Institutional Animal Care and Use Committees) protocols. Cpd.11 Ms was formulated using 2% dimethyl sulfoxide (DMSO in water for injection, starting from a Cpd.11 Ms main preparation (100-60 mg/ml in 2% DMSO in water for injection).
After tumor cell inoculation, the animals were checked daily for morbidity and mortality. Before commencement of treatment all animals were weighed and the tumor volumes were measured using a caliper. The treatments were started when the mean tumor size reached approx. 250 mm^3. Each treated/control group contained 10 mice that were randomly assigned and injected daily for 5 days. The date of tumor cell inoculation was denoted as day 0 (thus injections were performed at day 1, 2, 3, 4, and 5). At the time of routine monitoring, the animals were checked for any effects of tumor growth and treatments on normal behavior such as mobility, visual estimation of food and water consumption, body weight gain/loss (body weights were measured daily during the 5-day treatment and thrice weekly after treatment), eye/hair matting and any other abnormal effect. Death and observed clinical signs were recorded on the basis of the numbers of animals within each subset. Tumor volumes were measured daily during the 5-day treatment and thrice weekly after treatment in two dimensions using a caliper, and the volume was expressed in mm3 using the formula: V=0.5 a×b2 where a and b are the long and short diameters of the tumor, respectively. The entire procedures of dosing as well as tumor and body weight measurement were conducted in a Laminar Flow Cabinet. Individual mice were euthanized by cervical dislocation when the tumor size reached 1400-1600 mm3. The surrogate endpoint for survival was calculated and indicated as TVx4 (initial tumor volume times 4). Statistical analysis of difference in tumor volume among the groups was conducted at the end of experiment using Independent-Samples T Test. All data were analyzed in SPSS (Statistical Product and Service Solutions) version 18.0 (IBM, Armonk, NY, U.S.). P-values were rounded to three decimal places, with the exception that raw P-values less than 0.001 were stated as P<0.001. All tests were two-sided. P<0.05 was considered to be statistically significant.
For the MDA-MB-436 tumor (ATCC: HTB-130; Passage: P4) cells were maintained in vitro as a monolayer culture in L-15 medium supplemented with 10% heat inactivated fetal bovine serum at 37° C. in an atmosphere of 100% air. […] The cells growing in an exponential growth phase were harvested and counted for tumor inoculation. […]

The subject of data set [3] is pH2AX (Histone H2A.X, Phospho S139) in DMS 114 xenograft. The data set is described as follows: DNA damage by pH2AX staining with pimonidazole colocalization. Type of data set: in vivo, BALB/c Nude Mice. The following applies: 6 hours post single 600 mg/kg. As for the experimental part: To evaluate the impact of Cpd.11 Ms treatment on the induction of DNA damage, histological analysis of pH2AX staining and investigated colocalization of pH2AX and pimonidazole staining was performed in the small cell lung cancer model, DMS 114. DNA damage was assessed at 6 hours post a single administration of Cpd.11 Ms at 600 mg/kg. Pimonidazole Hydrochloride and pH2AX (Histone H2A.X, Phospho S139) antibodies are commercially available (Anti-Pimonidazole Hydrochloride, HP FITC Mab-1, HPI Hypoxyprobe Inc; Anti-Histone H2A.X (Phospho S139) antibody [EP854 (2) Y] ChIP Grade, ab81299, Abcam). From each xenograft sample, 3 non-sequential, 5 μm section levels with 50 μm spacing between each level were obtained. From each level, two or three serial sections were produced and collected on two or three slides depending upon the staining required: i) H&E and Pimonidazole or ii) H&E, Pimonidazole and pH2AX. Sections were then dried overnight at ~37° C. prior to staining. The H&Es were performed on a Leica ST4040 staining platform using harris haematoxylin and 1% eosin. Following antigen retrieval and subsequent protein blocking, the pH2AX antibody was incubated on the study tissue sections at a concentration of 1:48000 for 60 minutes. Following quenching of endogenous Horse Radish Peroxidase (HRP) activity using 3% hydrogen peroxide (aqueous), binding of pH2AX was visualised using a polymer based HRP driven detection system and ImmPACT DAB chromogen giving a brown reaction product at the site of antibody binding. A haematoxylin nuclear counterstain was then applied to the tissue sections. The Pimonidazole (FITC conjugated) antibody was incubated on the study tissue sections at a concentration of 1:5000 for 60 minutes. Following quenching of endogenous Horse Radish Peroxidase (HRP) activity using 3% hydrogen peroxide (aqueous), binding of Pimonidazole was visualised using an HRP conjugated rabbit anti-FITC secondary antibody (HPI Hypoxyprobe Inc, anti-FITC-HRP) and ImmPACT DAB chromogen giving a brown reaction product at the site of antibody binding. […]

Regarding `CCN1CCN(C(=O)c2cc(N(CCBr)CCOS(C)(=O)=O)c(S(C)(=O)=O)cc2[N+](=O)[O-])CC1.CS(=O)(=O)O` [Cpd.11 Ms, 4-(5-((2-bromoethyl) (2-((methylsulfonyl)oxy)ethyl)amino)-4-(methylsulfonyl)-2-nitrobenzoyl)-1-ethylpiperazin-1-ium methanesulfonate], the “corresponding level in human subjects of the rat dosage” value in data set [1] (from 400 mg/kg in the rat) is listed as 2360 mg/m^2. Moreover, in data set [1] (rat, intravenous, QDx3 in a 3 weekly cycle), the “dosage at which potential haematological toxicity (bone marrow, thymus, lymph nodes) can be minimized” value was at most 400 mg/kg. Moreover, the Anti-tumor effect result in data set [2] (listed as Cpd.11Ms) is on record as “Strong impact,”; in data set [2], “significant regression of the tumour”. In addition, the “effects on body weight” value in data set [2] (IP) is listed as “absence of effects on body weight”. In addition, the “median surrogate survival index (TVx4) compared to vehicle treated animals” value in data set [2] (IP) is on record as “more than double”. In addition, the “DNA damage (pH2AX) in normoxic areas, treated vs vehicle treated animals” value in data set [3] is “not statistically significantly different”. Further, in data set [3] (P=0.023, methanesulfonate, 600 mg/kg), the “DNA damage (pH2AX), hypoxic (pimonidazole positive) vs normoxic (pimonidazole negative) areas in treated animals” value is given as “significantly higher DNA damage; also recorded: mostly detected in the hypoxic areas”. In addition, the “DNA damage (pH2AX) in hypoxic (pimonidazole positive) areas, treated vs vehicle treated animals” value in data set [3] (P=0.038) is “significant increase in DNA damage”.
